Test results published in patent US9931327B2, “Derivatives of 1-phenyl-2-pyridinyl alkyl alcohols as phosphodiesterase inhibitors” (Chiesi Farmaceutici S.p.A., priority 2011, dated 2018).
Structures can show the parent of a compound that is named as a salt.

tested on: LPS-induced TNF-α release in peripheral blood mononuclear cells (PBMCs); assay: In vitro determination of PDE4 inhibitory activity in the PBMCs assay (LPS-induced TNF-α release); type: cell-based, human; conditions: Homo sapiens, PBMC, 18 h, read-out: PDE4 inhibition (IC50, 50% inhibition of LPS-induced TNF-α release)
In short: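 Cryopreserved human PBMCs (10^5 cells/well) pre-incubated 30 min with compound (10^−12 to 10^−6 M or 10^−3 to 10^−7 M), then stimulated with LPS 3 ng/ml for 18 h at 37 °C. TNF-α in medium by ELISA; IC50 as mean ± 95% confidence limits.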

Compound `Nc1ccc(S(=O)(=O)N2CCS[C@@H]2C(=O)O[C@@H](Cc2c(Cl)c[n+]([O-])cc2Cl)c2ccc(OC(F)F)c(OCC3CC3)c2)cc1` [Compound 151, 4-((S)-2-((R)-3-(4-aminophenylsulfonyl)thiazolidine-2-carbonyloxy)-2-(3-(cyclopropylmethoxy)-4-(difluoromethoxy)phenyl)ethyl)-3,5-dichloropyridine 1-oxide] has an IC50 of 0.1 to 1 nM.

same assay, conditions: PBMC; human PBMCs, LPS 3 ng/ml, 18 hours, TNF-α by ELISA; read-out: PDE4 inhibition (IC50, 50% inhibition of LPS-induced TNF-α release)

`Nc1ccc(S(=O)(=O)N2CCOC(C(=O)O[C@@H](Cc3c(Cl)c[n+]([O-])cc3Cl)c3ccc(OC(F)F)c(OCC4CC4)c3)C2)cc1` (stereo partly drawn) [Compound 139, 4-((2S)-2-(4-(4-aminophenylsulfonyl)morpholine-2-carbonyloxy)-2-(3-(cyclopropylmethoxy)-4-(difluoromethoxy)phenyl)ethyl)-3,5-dichloropyridine 1-oxide] and `Nc1ccc(S(=O)(=O)N2CCS[C@H]2C(=O)O[C@@H](Cc2c(Cl)c[n+]([O-])cc2Cl)c2ccc(OC(F)F)c(OCC3CC3)c2)cc1` [Compound 150, 4-((S)-2-((S)-3-(4-aminophenylsulfonyl)thiazolidine-2-carbonyloxy)-2-(3-(cyclopropylmethoxy)-4-(difluoromethoxy)phenyl)ethyl)-3,5-dichloropyridine 1-oxide] cannot be ordered by IC50: < 0.1 nM for the first, < 0.1 nM for the second.

First: Nc1cccc(S(=O)(=O)N2CCS[C@H]2C(=O)O[C@@H](Cc2c(Cl)c[n+]([O-])cc2Cl)c2ccc(OC(F)F)c(OCC3CC3)c2)c1 [Compound 140, 4-((S)-2-((S)-3-(3-aminophenylsulfonyl)thiazolidine-2-carbonyloxy)-2-(3-(cyclopropylmethoxy)-4-(difluoromethoxy)phenyl)ethyl)-3,5-dichloropyridine 1-oxide]
Second: CS(=O)(=O)Nc1ccc(S(=O)(=O)N2CCSC2C(=O)O[C@@H](Cc2c(Cl)c[n+]([O-])cc2Cl)c2ccc(OC(F)F)c(OCC3CC3)c2)cc1 (stereo partly drawn) [Compound 142, 3,5-dichloro-4-((2S)-2-(3-(cyclopropylmethoxy)-4-(difluoromethoxy)phenyl)-2-(3-(4-(methylsulfonamido)phenylsulfonyl)thiazolidine-2-carbonyloxy)ethyl)pyridine 1-oxide]
The IC50 of the first is lower: < 0.1 nM for the first, 0.1 to 1 nM for the second. The first is the more potent here.

`Nc1ccc(S(=O)(=O)N2CCN(CC(=O)O[C@@H](Cc3c(Cl)c[n+]([O-])cc3Cl)c3ccc(OC(F)F)c(OCC4CC4)c3)CC2)cc1` [Compound 141, (S)-4-(2-(2-(4-(4-aminophenylsulfonyl)piperazin-1-yl)acetoxy)-2-(3-(cyclopropylmethoxy)-4-(difluoromethoxy)phenyl)ethyl)-3,5-dichloropyridine 1-oxide] and `CS(=O)(=O)N(CCN1CCOCC1)c1ccc(S(=O)(=O)N2CCSC2C(=O)O[C@@H](Cc2c(Cl)c[n+]([O-])cc2Cl)c2ccc(OC(F)F)c(OCC3CC3)c2)cc1` (stereo partly drawn) [Compound 143, 3,5-dichloro-4-((2S)-2-(3-(cyclopropylmethoxy)-4-(difluoromethoxy)phenyl)-2-(3-(4-(N-(2-morpholinoethyl)methylsulfonamido)phenylsulfonyl)thiazolidine-2-carbonyloxy)ethyl)pyridine 1-oxide formate] fall in the same range of IC50: 0.1 to 1 nM for the first, 0.1 to 1 nM for the second.

First: O=C(CN1CCSC1C(=O)O[C@@H](Cc1c(Cl)c[n+]([O-])cc1Cl)c1ccc(OC(F)F)c(OCC2CC2)c1)c1cccs1 (stereo partly drawn) [Compound 144, 3,5-dichloro-4-((2S)-2-(3-(cyclopropylmethoxy)-4-(difluoromethoxy)phenyl)-2-(3-(2-oxo-2-(thiophen-2-yl)ethyl)thiazolidine-2-carbonyloxy)ethyl)pyridine 1-oxide]
Second: Cn1ccnc1S(=O)(=O)N1CCC[C@H]1C(=O)O[C@@H](Cc1c(Cl)c[n+]([O-])cc1Cl)c1ccc(OC(F)F)c(OCC2CC2)c1 [Compound 155, 3,5-dichloro-4-((S)-2-(3-(cyclopropylmethoxy)-4-(difluoromethoxy)phenyl)-2-((S)-1-(1-methyl-1H-imidazol-2-ylsulfonyl)pyrrolidine-2-carbonyloxy)ethyl)pyridine 1-oxide]
The IC50 of the first is higher: 0.1 to 1 nM for the first, < 0.1 nM for the second.
